Results reported in US20110020269A1, “METHODS AND COMPOSITIONS FOR MODIFYING T CELL IMMUNE RESPONSES AND INFLAMMATION” (Beth Israel Deaconess Medical Center, Inc., priority 2007, published 2011).

What was measured:
new onset T1DM NOD mice = assay: Restoration of euglycemia in new onset diabetic NOD mice; assay type: in vivo, mouse; details: NOD-sp hosts; treatment 28 days
Protocol: We tested the efficacy of a 14- or 28-day course of Power Mix (RPM+IL-2/Fc+mIL-15/Fc) in new onset (>10 days) T1DM NOD mice whose repeated blood glucose levels ranged from 300 to 450 mg/dl. All non-treated diabetic NOD mice remained hyperglycemic without spontaneous remissions (Table 1, group A) and most died within 7 weeks despite insulin treatment (data not shown). In contrast, euglycemia was achieved within 5-7 weeks and maintained throughout a follow up period of over 300 days in 55 of 60 diabetic NOD mice treated with the RPM+IL-2/Fc+mIL-15/Fc regimen (Table 1 groups B and C). By comparison, remissions were less frequent (Table 1, Groups D-F) and delayed if elements of the treatment mix were eliminated.
To determine whether the presence of the T cell regulatory-enriched CD25+ T cell population is crucial to the beneficial therapeutic effects of Power Mix, prior to administration, we treated new onset diabetic NOD mice with an anti-CD25 mAb regimen known to delete CD4+CD25+ T cells (Zheng et al., Adv. Exp. Med. Biol., 520:87-95, 2003; Sanchez-Fueyo et al., Nat. Immunol., 4:1093-1101, 2003). Seven days after the initiation of anti-CD25 mAb treatment, these CD25+ T cell depleted mice received regimen treatment for 28 days (Table 1, Group G). […]
Blood glucose levels of NOD mice were monitored twice weekly with the Accu-Check blood glucose monitor system (Roche, Indianapolis, Ind.). […]

[1] = subcutaneous injection of 25 mg twice a week; cited from earlier work

Compound	Restored to Normoglycemia (#/total treated) (new onset T1DM NOD mice)	Time to peak blood levels (average) [1]
CO[C@H]1C[C@@H]2CC[C@@H](C)[C@@](O)(O2)C(=O)C(=O)N2CCCC[C@H]2C(=O)O[C@H]([C@H](C)C[C@@H]2CC[C@@H](O)[C@H](OC)C2)CC(=O)[C@H](C)/C=C(\C)[C@@H](O)[C@@H](OC)C(=O)[C@H](C)C[C@H](C)/C=C/C=C/C=C/1C [RPM, rapamycin]	5/19	
Etanercept		72 h
